Measurements reported in ChEMBL document CHEMBL4043108, “Identification of galiellalactone-based novel STAT3-selective inhibitors with cytotoxic activities against triple-negative breast cancer cell lines” (Bioorg Med Chem, 2017).
pIC50: −log10 of the molar value. Activity calls are given as the source filed them. The rule behind the calls is not given here.

Columns and labels:
MDA-MB-468 [1] = test: Cytotoxic activity against human MDA-MB-468 cells incubated for 24 hrs by MTT assay; format: functional, cell-based; conditions: MDA-MB-468, 24 h
MDA-MB-231 = test: Cytotoxic activity against human MDA-MB-231 cells incubated for 24 hrs by MTT assay; format: functional, cell-based; conditions: MDA-MB-231, 24 h
BT-549 = test: Cytotoxic activity against human BT549 cells incubated for 24 hrs by MTT assay; format: functional, cell-based; conditions: BT-549, 24 h
[2] = target: Signal transducer and activator of transcription 3 (Homo sapiens) (UniProt P40763); test: Inhibition of STAT3 transcriptional activity in human MDA-MB-468 cells at 5 uM incubated for 24 hrs by STAT3-dependent luciferase reporter assay; format: cell-based
Signal transducer and activator of transcription 3 (Homo sapiens), sequence (P40763 whole entry): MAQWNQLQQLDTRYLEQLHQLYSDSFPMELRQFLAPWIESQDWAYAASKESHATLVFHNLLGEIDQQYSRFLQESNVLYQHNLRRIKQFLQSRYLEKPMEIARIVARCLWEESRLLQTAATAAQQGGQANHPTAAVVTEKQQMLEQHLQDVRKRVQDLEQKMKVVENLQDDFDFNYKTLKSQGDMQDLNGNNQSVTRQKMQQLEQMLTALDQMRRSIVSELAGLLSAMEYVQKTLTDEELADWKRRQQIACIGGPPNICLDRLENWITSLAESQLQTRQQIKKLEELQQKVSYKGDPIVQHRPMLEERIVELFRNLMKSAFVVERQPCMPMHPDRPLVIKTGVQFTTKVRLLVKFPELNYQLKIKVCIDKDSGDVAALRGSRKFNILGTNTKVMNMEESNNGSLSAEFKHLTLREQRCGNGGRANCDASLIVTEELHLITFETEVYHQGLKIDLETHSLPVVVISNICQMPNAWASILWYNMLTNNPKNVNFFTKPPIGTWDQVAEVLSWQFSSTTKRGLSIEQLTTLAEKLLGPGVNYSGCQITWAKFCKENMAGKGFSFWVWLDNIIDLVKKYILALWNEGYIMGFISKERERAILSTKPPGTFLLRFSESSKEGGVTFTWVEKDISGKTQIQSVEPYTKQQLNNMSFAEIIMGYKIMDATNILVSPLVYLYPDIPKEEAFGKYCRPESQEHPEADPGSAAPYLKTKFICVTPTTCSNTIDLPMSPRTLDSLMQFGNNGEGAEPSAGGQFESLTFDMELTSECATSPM

[3] = target: Signal transducer and activator of transcription 3 (Homo sapiens) (UniProt P40763); test: Inhibition of STAT3 Tyr705 phosphorylation in human MDA-MB-468 cells at 5 and 10 uM incubated for 4 hrs by Western blot; format: cell-based
[4] = target: Signal transducer and activator of transcription 3 (Homo sapiens) (UniProt P40763); test: Inhibition of STAT3 Ser727 phosphorylation in human MDA-MB-468 cells at 5 and 10 uM incubated for 4 hrs by Western blot; format: cell-based
[5] = target: T1, Signal transducer and activator of transcription 1-alpha/beta (Homo sapiens) (UniProt P42224); test: Inhibition of STAT1 Tyr701 phosphorylation in human MDA-MB-468 cells at 5 and 10 uM incubated for 4 hrs by Western blot; format: cell-based
T1 sequence (whole entry): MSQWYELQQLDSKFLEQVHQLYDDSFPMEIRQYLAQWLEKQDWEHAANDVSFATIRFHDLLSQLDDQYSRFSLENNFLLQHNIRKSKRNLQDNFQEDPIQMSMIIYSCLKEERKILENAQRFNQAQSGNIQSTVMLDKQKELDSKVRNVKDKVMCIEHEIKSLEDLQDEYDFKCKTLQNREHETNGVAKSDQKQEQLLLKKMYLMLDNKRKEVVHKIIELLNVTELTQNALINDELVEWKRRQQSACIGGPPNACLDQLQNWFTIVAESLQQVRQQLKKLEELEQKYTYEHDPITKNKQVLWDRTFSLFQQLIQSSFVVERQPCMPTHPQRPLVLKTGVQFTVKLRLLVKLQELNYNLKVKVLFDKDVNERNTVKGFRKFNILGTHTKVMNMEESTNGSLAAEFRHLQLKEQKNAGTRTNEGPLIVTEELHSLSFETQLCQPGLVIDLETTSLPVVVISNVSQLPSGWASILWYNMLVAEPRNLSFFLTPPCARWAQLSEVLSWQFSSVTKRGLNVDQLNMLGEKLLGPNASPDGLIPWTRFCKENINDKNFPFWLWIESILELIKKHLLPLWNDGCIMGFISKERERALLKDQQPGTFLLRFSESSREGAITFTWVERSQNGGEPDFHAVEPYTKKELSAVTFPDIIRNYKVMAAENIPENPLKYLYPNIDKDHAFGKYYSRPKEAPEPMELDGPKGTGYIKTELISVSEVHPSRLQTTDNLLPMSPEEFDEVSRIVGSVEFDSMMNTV

MDA-MB-468 [6] = test: Effect on total STAT3 protein level in human MDA-MB-468 cells at 5 and 10 uM incubated for 4 hrs by Western blot; format: cell-based; conditions: mda-mb-468, 4 h
MDA-MB-468 [7] = test: Effect on total STAT1 protein level in human MDA-MB-468 cells at 5 and 10 uM incubated for 4 hrs by Western blot; format: cell-based; conditions: mda-mb-468, 4 h
[8] = Toxicity in human MDA-MB-468 cells assessed as cell viability at 5 uM incubated for 24 hrs by MTT assay (reference value: 100%); format: cell-based; conditions: read-out: Activity
[9] = Toxicity in human MDA-MB-468 cells assessed as cell viability at 10 uM incubated for 24 hrs by MTT assay (reference value: 100%); format: cell-based; conditions: read-out: Activity
[10] = target: T2, Signal transducer and activator of transcription 5A (Homo sapiens) (UniProt P42229); test: Inhibition of STAT5 Tyr694 phosphorylation in human MDA-MB-468 cells at 5 and 10 uM incubated for 4 hrs by Western blot; format: cell-based
T2 sequence (whole entry): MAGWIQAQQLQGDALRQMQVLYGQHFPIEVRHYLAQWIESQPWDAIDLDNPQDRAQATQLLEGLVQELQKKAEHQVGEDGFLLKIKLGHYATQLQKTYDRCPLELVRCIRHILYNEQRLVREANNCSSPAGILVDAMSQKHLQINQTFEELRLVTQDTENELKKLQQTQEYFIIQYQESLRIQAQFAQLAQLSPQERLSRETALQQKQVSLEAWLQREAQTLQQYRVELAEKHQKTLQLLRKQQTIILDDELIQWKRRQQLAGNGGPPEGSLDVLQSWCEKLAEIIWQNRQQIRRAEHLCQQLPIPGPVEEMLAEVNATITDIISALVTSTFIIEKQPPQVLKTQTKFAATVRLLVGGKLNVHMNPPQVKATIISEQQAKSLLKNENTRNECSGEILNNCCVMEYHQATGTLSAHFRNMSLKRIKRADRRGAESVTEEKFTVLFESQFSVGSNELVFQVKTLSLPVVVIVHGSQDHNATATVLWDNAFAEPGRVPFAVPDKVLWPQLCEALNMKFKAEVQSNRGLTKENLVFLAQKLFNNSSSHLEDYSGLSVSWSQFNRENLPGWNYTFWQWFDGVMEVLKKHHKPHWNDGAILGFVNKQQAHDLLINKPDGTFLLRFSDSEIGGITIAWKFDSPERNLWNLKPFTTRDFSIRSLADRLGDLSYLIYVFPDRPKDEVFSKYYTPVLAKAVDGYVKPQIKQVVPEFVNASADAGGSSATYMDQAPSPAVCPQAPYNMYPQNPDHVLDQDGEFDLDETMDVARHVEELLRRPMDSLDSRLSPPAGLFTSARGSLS

Structure (SMILES) | pIC50 (MDA-MB-468 [1]) | pIC50 (MDA-MB-231) | pIC50 (BT-549) | inhibition [2] | inhibition [3] | inhibition [4] | inhibition [5] | Activity (MDA-MB-468 [6]) | Activity (MDA-MB-468 [7]) | viability at 24 h, 5 µM [8] [%] | viability at 24 h, 10 µM [9] [%] | inhibition [10]
C=C1C(=O)O[C@@H]2CC[C@H](CO)[C@]12OC | < 4.30 | < 4.30 | < 4.30 | inactive |  |  |  |  |  |  |  | 
C=C1C(=O)O[C@@H]2CC[C@H](CBr)[C@]12OC | 5.10 | 5.06 | 5.18 | Active | Dose-dependent effect | inactive | inactive | Non-Toxic | Non-Toxic | 98 | 93 | 
C[C@@H]1C(=O)O[C@@H]2CC[C@H](CBr)[C@]12O | < 4.30 | < 4.30 | < 4.30 | inactive |  |  |  |  |  |  |  | 
C=C1C(=O)O[C@@H]2CC[C@H](COC)[C@]12OC | < 4.30 | < 4.30 | < 4.30 | inactive |  |  |  |  |  |  |  | 
C=C[C@H](C)[C@@H](O)[C@H]1CC[C@H]2CC(=O)C(=C)[C@]21O | < 4.30 | < 4.30 | 4.41 | inactive |  |  |  |  |  |  |  | 
C=C1C(=O)O[C@@H]2CC[C@H](CBr)[C@]12OCC | 5.11 | 5.04 | 5.24 | Active |  |  |  |  |  |  |  | 
C=C1C(=O)O[C@@H]2CC[C@H](CF)[C@]12O | 4.65 | 4.63 | 5.10 |  |  |  |  |  |  |  |  | 
O=C1O[C@@H]2CC[C@@H]3[C@H](O)CC=C1[C@@]32O | < 4.30 | < 4.30 | < 4.30 | inactive |  |  |  |  |  |  |  | 
C[C@@H]1C=C2C(=O)O[C@@H]3CC[C@H]([C@H]1O)[C@]23O | < 4.30 | < 4.30 | < 4.30 | inactive |  |  |  |  |  |  |  | 
CN[C@@H]1C[C@H]2O[C@@](C)([C@@H]1OC)n1c3ccccc3c3c4c(c5c6ccccc6n2c5c31)C(=O)NC4 [STAUROSPORINE] | 6.82 |  |  |  |  |  |  |  |  |  |  | 
C=CCC(=O)[C@H]1CC[C@H]2OC(=O)C(=C)[C@@]12O | 4.37 | 4.32 | 4.60 | inactive |  |  |  |  |  |  |  | 
O=C1O[C@@H]2CC[C@H](CBr)[C@]2(O)[C@]12CO2 | < 4.30 | < 4.30 | < 4.30 | inactive |  |  |  |  |  |  |  | 
C=C1C(=O)O[C@@H]2CC[C@H](COC)[C@]12O | < 4.30 | < 4.30 | 4.42 | inactive |  |  |  |  |  |  |  | 
C[C@H]1C=C2C(=O)O[C@@H]3CC[C@H](C1=O)[C@]23O | < 4.30 | < 4.30 | < 4.30 | inactive |  |  |  |  |  |  |  | 
C=C1C(=O)O[C@@H]2CC[C@H](CO)[C@H]12 | < 4.30 | < 4.30 | < 4.30 | inactive |  |  |  |  |  |  |  | 
C[C@@H]1C=C2C(=O)O[C@@H]3CC[C@H](C1)[C@]23O | 4.76 | 4.77 | 4.90 | Active | Dose-dependent effect | inactive | inactive | Non-Toxic |  | 97 | 90 | inactive
C=C1C(=O)O[C@@H]2CC[C@H](CBr)[C@H]12 | 4.37 | 4.48 | 4.61 |  |  |  |  |  |  |  |  | 
C=C1C(=O)O[C@@H]2CC[C@H](CBr)[C@]12O | 4.93 | 4.92 | 5.02 | Active | Dose-dependent effect | inactive | inactive | Non-Toxic | Non-Toxic | 100 | 98 | 
C=C1C(=O)O[C@@H]2CC[C@H](CBr)[C@]12OC(C)=O | < 4.30 | < 4.30 | < 4.30 |  |  |  |  |  |  |  |  | 
C[C@H]1C=C2C(=O)O[C@@H]3CC[C@H]([C@@H]1O)[C@]23O | < 4.30 | < 4.30 | < 4.30 | inactive |  |  |  |  |  |  |  | 
C=C1C(=O)O[C@@H]2CC[C@H](CCl)[C@]12O | < 4.30 | < 4.30 | < 4.30 |  |  |  |  |  |  |  |  | 
C=CC[C@H](O)[C@H]1CC[C@H]2OC(=O)C(=C)[C@@]12O | 4.36 | 4.36 | 4.56 | inactive |  |  |  |  |  |  |  | 
C=C[C@@H](C)[C@H](O)[C@H]1CC[C@H]2CC(=O)C(=C)[C@]21O | < 4.30 | < 4.30 | < 4.30 | inactive |  |  |  |  |  |  |  | 
O=C1O[C@@H]2CC[C@@H]3[C@@H](O)CC=C1[C@@]32O | < 4.30 | < 4.30 | < 4.30 | inactive |  |  |  |  |  |  |  | 
C=C1C(=O)C[C@@H]2CC[C@H](CO)[C@]12O | < 4.30 | < 4.30 | 4.39 | inactive |  |  |  |  |  |  |  | 
C=C1C(=O)O[C@@H]2CC[C@H](CI)[C@]12O | 4.63 | 4.59 | 4.76 |  |  |  |  |  |  |  |  | 
C=CC[C@@H](O)[C@H]1CC[C@H]2OC(=O)C(=C)[C@@]12O | < 4.30 | < 4.30 | 4.41 | inactive |  |  |  |  |  |  |  | 
